Experimental data as given in ChEMBL document CHEMBL1201862, “PubChem BioAssay data set” (2004).
Values belong to the compound of their own block, whether it stands above or below them. Active and inactive are the calls of the source.

What was measured:
cells [1] = assay type: functional, cell-based
cells [2] = assay type: functional, cell-based; remark: listed apart in the source
[3] = molecular target: Voltage-dependent T-type calcium channel subunit alpha-1H (Homo sapiens, UniProt O95180); assay type: functional;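 further: channel activity triggered by adding a high calcium stimulation buffer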
Voltage-dependent T-type calcium channel subunit alpha-1H, sequence (O95180 whole entry): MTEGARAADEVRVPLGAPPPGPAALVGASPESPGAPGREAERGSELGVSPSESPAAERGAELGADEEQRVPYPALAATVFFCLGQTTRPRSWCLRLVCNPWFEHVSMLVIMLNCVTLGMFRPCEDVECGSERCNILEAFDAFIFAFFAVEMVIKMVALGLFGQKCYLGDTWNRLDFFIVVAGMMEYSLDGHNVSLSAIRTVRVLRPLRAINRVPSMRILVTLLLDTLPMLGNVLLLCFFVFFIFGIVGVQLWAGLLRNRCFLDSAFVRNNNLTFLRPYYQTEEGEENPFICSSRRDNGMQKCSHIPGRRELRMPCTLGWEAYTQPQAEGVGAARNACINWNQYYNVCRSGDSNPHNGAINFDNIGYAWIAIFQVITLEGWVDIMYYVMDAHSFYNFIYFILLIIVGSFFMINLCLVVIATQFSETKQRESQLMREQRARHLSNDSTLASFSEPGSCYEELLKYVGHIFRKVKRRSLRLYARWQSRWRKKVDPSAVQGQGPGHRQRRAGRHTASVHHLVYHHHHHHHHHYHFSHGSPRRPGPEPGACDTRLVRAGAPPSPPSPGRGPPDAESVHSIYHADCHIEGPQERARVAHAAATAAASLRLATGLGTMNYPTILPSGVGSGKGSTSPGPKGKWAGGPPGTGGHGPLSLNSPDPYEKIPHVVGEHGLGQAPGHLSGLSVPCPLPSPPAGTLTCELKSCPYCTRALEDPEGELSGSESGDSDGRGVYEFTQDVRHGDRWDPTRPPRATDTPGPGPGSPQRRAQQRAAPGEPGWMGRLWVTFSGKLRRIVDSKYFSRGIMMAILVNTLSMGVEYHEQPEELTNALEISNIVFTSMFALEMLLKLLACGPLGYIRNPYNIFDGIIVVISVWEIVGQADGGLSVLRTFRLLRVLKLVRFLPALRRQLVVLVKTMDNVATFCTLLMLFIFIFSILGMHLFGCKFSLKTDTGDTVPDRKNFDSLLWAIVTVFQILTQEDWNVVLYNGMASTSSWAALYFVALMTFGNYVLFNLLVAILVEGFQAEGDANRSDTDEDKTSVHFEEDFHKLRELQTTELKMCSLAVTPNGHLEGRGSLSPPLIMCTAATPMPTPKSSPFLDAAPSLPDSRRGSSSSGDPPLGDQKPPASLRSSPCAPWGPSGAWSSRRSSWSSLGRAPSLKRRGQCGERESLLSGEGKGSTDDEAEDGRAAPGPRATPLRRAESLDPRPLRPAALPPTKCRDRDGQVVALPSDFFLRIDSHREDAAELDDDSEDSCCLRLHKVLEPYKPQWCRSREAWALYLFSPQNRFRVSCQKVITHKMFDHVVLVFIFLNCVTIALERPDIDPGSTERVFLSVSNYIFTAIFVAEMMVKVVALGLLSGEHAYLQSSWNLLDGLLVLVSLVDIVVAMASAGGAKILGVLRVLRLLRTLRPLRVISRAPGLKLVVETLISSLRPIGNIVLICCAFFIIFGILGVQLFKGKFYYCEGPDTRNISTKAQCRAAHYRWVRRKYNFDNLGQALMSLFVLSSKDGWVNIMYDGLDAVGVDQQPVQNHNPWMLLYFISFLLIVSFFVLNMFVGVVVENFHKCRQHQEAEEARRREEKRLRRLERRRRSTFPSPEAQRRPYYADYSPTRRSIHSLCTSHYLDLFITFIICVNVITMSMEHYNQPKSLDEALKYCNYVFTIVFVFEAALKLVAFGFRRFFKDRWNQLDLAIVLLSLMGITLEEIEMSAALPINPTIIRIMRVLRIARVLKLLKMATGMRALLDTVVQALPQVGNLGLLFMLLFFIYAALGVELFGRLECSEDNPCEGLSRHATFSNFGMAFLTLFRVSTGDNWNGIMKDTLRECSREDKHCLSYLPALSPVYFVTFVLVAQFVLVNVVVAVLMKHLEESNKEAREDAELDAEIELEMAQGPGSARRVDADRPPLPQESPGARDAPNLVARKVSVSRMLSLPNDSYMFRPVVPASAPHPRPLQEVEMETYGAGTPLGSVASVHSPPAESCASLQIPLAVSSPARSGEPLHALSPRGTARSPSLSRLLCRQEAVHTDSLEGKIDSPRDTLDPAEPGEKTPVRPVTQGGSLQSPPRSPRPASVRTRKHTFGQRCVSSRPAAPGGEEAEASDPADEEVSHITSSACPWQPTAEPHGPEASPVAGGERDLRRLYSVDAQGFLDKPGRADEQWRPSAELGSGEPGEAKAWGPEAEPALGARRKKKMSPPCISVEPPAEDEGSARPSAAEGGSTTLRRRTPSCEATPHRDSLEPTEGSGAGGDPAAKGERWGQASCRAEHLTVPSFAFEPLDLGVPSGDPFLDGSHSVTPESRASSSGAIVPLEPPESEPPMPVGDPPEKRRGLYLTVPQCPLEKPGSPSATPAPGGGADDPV

BJ [4] = assay: cytotoxicity toward BJ-TERT-LT-ST fibroblasts, dose response, cell-based, RAS-independent, luminescence (AID 1935); assay type: functional; conditions: Homo sapiens;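 further: BJ fibroblasts immortalized with TERT plus LT and ST oncogenes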
[5] = molecular target: T1, Luciferin 4-monooxygenase (Photinus pyralis, UniProt P08659); assay: Counter Screen for Luciferase-based Assay Positives. [Related pubchem assays: 620, 618, 411 ]
T1 sequence (P08659 whole entry): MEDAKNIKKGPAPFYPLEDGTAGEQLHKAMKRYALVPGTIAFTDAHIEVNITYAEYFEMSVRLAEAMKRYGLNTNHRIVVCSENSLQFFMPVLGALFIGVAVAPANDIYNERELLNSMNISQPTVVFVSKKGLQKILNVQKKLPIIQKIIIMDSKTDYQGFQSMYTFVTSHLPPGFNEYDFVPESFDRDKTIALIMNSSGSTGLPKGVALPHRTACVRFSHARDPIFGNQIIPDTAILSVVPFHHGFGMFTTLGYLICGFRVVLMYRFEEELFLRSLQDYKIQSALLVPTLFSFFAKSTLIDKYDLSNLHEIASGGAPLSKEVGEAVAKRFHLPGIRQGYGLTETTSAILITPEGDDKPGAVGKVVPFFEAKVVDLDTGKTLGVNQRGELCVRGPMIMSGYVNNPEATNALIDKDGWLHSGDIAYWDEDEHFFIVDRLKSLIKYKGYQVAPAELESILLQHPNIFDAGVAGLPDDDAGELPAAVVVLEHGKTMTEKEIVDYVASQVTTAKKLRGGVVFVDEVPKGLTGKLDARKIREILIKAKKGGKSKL

BJ [6] = assay: cytotoxicity toward BJ-TERT fibroblasts, dose response, cell-based, RAS-independent, luminescence (AID 1933); assay type: functional; conditions: Homo sapiens
[7] = molecular target: T1, Luciferin 4-monooxygenase; assay: firefly luciferase enzyme inhibitors, dose response, biochemical, luminescence (AID 1891)
[8] = Luminescence Cell-Based Dose Confirmation HTS to Identify Inhibitors of Platelet Dense Granule Release. [Related pubchem assays: 1663 (Primary HTS), 1678 (Summary of Project)]; assay type: functional
BJ [9] = assay: cells; assay type: functional, cell-based; conditions: Homo sapiens
[10] = cytotoxicity toward DRD oncogenic fibroblasts, dose response, cell-based, non-viral oncogenic, luminescence (AID 1934); assay type: functional; conditions: Homo sapiens
HT-1080 = assay: cytotoxicity in HT1080 fibrosarcoma cells, cell-based, fluorescence readout (AID 620); assay type: functional; conditions: Homo sapiens
[11] = molecular target: G-protein coupled receptor 55 (Homo sapiens, UniProt Q9Y2T6); assay: GPR55 antagonists blocking LPI-driven arrestin recruitment, primary screen, imaging, U2OS, beta-arrestin-GFP, LPI agonist (AID 2013); assay type: functional;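 further: antagonist potency measured as reduced agonist-driven arrestin aggregation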
G-protein coupled receptor 55, sequence (Q9Y2T6 whole entry): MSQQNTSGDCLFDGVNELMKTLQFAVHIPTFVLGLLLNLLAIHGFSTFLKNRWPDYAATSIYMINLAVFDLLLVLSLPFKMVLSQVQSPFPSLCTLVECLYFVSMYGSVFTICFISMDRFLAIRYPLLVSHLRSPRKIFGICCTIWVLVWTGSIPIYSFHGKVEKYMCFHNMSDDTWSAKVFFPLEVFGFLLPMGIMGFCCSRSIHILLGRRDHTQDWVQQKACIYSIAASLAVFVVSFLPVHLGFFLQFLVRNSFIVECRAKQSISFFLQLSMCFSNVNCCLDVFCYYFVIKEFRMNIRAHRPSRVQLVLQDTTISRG

[12] = A549 cell cytotoxicity, dose response, cytotoxicity control, plate reader, cherry-pick, antagonist series (AID 743412); assay type: functional, cell-based
[13] = LGR2 antagonists, dose response, cell-based, HEK293, CRE-luciferase reporter, cherry pick, set 2 (AID 743343); assay type: functional;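 further: transfected cells were stimulated with diluted bursicon conditioned medium after compound addition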
[14] = molecular target: T2, Acyl-homoserine lactone acylase PvdQ (Pseudomonas aeruginosa (strain LESB58), UniProt Q9I194); assay: P. aeruginosa PvdQ acylase inhibitors, dose response, biochemical, fluorescence, plate reader and imaging, cherry-picks (AID 493231)
T2 sequence (Q9I194 whole entry): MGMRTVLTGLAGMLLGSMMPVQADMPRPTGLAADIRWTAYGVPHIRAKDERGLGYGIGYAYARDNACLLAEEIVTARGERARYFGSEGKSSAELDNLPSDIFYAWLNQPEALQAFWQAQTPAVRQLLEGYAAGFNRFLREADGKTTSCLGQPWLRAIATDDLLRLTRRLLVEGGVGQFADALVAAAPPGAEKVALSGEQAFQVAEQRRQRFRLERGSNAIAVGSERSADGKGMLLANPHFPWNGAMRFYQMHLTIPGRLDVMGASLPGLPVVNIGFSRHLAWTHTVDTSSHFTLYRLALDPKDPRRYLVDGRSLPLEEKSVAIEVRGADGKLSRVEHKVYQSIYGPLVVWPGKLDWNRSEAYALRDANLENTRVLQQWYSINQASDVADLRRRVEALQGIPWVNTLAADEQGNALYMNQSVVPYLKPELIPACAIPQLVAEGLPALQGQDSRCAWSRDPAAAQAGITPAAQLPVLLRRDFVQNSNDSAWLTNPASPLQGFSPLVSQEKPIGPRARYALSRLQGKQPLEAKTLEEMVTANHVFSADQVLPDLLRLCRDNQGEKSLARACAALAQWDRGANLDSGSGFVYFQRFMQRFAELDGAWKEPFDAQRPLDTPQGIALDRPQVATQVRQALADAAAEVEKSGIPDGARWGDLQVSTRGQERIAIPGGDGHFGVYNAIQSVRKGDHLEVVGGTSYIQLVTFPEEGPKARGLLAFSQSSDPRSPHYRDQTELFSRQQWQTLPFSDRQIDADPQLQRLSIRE

[15] = molecular target: T3, Heat shock factor protein 1 (Mus musculus, UniProt P38532); assay: inhibition of MG132-induced HSE-luciferase signal, confirmation, cell-based, NIH3T3, luminescence, dose retest (AID 2382); assay type: functional;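 further: NIH3T3 fibroblasts with HSF1-driven luciferase reporter stressed by proteasome inhibitor MG132; luminescence from HSF1-driven luciferase expression after 8 hours of MG132 stress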
T3 sequence (P38532 whole entry): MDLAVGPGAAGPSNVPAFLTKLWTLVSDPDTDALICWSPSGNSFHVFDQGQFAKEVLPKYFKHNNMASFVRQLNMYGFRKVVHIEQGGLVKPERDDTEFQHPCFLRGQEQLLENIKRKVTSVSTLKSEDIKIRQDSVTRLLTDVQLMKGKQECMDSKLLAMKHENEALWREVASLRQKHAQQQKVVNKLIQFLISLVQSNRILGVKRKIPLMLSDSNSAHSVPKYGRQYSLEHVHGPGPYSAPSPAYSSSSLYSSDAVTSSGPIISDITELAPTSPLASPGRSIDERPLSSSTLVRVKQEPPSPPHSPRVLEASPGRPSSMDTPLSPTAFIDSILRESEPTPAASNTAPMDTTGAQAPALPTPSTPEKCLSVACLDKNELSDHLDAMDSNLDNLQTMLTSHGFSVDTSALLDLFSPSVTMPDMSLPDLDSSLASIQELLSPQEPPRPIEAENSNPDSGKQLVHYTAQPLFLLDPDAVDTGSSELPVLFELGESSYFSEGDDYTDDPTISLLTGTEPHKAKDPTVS

Protein skinhead-1 = molecular target: T4, Protein skinhead-1 (Caenorhabditis elegans, UniProt P34707); assay type: functional
T4 sequence (P34707 whole entry): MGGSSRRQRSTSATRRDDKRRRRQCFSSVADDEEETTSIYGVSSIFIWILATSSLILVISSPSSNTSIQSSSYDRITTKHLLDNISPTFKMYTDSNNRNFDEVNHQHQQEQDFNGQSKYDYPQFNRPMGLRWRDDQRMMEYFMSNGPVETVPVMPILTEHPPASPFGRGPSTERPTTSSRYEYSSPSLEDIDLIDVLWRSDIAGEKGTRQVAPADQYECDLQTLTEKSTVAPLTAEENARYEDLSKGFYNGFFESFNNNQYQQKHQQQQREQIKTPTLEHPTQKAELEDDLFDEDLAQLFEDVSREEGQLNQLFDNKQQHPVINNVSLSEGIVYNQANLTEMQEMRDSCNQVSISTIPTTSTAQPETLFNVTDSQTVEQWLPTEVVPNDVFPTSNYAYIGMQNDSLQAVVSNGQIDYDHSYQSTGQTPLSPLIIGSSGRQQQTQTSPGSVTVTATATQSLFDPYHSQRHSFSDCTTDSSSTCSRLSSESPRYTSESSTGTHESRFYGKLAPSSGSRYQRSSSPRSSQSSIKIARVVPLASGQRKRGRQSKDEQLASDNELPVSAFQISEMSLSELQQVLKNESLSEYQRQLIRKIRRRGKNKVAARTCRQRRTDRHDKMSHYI

[16] = MC4R antagonists, dose response, counter-screen for LGR2 antagonist project, cell-based, plate reader, cherry pick (AID 743444); assay type: functional;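 further: transfected HEK 293 cells stimulated with alpha-MSH peptide; potency of inhibitors of the alpha-MSH evoked signal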
[17] = cytotoxicity in HEK-293T cells, dose response, cytotoxicity control for BCR NF-kB inhibitor project, luminescence, B-cell screen hits (AID 489021); assay type: functional, cell-based;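 further: HEK-293T cells carrying an NF-kB luciferase reporter; cells exposed to compound for about 14 hours before viability readout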
[18] = non-specific cell cytotoxicity, dose response, cytotoxicity control for PAX8 inhibitor project, plate reader, dry powder samples (AID 743021); assay type: functional, cell-based
BJ [19] = assay: cytotoxicity toward Ras-transformed BJeLR fibroblasts, dose response, cell-based, alamar blue fluorescence, cherrypicked samples (AID 2631); assay type: functional; conditions: Homo sapiens;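 further: confirmatory dose-response assay in RAS-dependent BJ fibroblasts engineered with TERT, LT and ST, with cytotoxicity read by fluorescence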
Paired box protein Pax-8 = Paired box protein Pax-8 (Homo sapiens, UniProt Q06710); assay: inhibitors of PAX8-driven TPO luciferase reporter, dose response, RMG-I cells, cherry-pick (AID 687027); assay type: functional, cell-based;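 further: luciferase reporter driven by Pax8 target thyroperoxidase promoter measured by SteadyGlo luminescence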
Paired box protein Pax-8, sequence (Q06710 whole entry): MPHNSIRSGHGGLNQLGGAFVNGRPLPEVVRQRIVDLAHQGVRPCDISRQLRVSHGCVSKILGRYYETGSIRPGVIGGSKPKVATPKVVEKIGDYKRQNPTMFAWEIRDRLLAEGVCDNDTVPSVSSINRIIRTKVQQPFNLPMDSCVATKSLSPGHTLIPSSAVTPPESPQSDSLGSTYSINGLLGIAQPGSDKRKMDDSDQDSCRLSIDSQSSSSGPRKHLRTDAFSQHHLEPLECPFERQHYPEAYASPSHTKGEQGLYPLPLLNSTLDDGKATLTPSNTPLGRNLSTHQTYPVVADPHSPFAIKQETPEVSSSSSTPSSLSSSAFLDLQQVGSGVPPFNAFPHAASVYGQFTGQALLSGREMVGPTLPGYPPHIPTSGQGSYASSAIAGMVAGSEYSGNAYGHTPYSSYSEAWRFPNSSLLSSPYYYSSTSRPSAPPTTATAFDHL

[20] = molecular target: FAD-linked sulfhydryl oxidase ALR (Homo sapiens, UniProt P55789); assay: inhibitors of human ALR sulfhydryl oxidase, dose response, biochemical, H2O2 detection, luminescence, cherry-pick (AID 493248)
FAD-linked sulfhydryl oxidase ALR, sequence (P55789 whole entry): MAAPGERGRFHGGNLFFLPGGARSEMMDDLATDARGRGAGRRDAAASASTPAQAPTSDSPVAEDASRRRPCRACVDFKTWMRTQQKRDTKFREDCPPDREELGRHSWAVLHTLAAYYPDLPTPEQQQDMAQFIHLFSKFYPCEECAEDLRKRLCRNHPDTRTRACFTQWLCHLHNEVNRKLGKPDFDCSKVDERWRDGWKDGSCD

[21] = molecular target: DNA dC->dU-editing enzyme APOBEC-3G (Homo sapiens, UniProt Q9HC16); assay: Dose Response confirmation of small molecule APOBEC3G DNA Deaminase Inhibitors via a fluorescence-based single-stranded DNA deaminase assay. [Related pubchem assays (depositor defined):AID493012, AID493028]; assay type: functional
DNA dC->dU-editing enzyme APOBEC-3G, sequence (Q9HC16 whole entry): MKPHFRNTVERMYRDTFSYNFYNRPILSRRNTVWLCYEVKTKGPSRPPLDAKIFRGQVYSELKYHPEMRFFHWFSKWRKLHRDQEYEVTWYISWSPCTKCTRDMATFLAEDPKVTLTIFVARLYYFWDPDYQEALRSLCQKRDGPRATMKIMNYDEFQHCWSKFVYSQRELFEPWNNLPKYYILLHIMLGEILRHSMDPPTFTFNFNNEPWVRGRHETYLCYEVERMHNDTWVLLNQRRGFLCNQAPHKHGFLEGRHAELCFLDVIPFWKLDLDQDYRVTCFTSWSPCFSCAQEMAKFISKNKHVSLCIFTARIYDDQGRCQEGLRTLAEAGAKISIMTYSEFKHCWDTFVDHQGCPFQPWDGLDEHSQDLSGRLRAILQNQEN

HeLa = assay: HeLa cell cytotoxicity, dose response, cytotoxicity control for MITF activator project, CellTiter-Glo luminescence, cherry-pick samples (AID 540259); assay type: functional, cell-based; conditions: Homo sapiens
[22] = molecular target: T5, Alkaline phosphatase, tissue-nonspecific isozyme (Homo sapiens, UniProt P05186); assay: human TNAP enzyme inhibitors, SAR follow-up, biochemical, luminescent, dose response (AID 1056)
T5 sequence (P05186 whole entry): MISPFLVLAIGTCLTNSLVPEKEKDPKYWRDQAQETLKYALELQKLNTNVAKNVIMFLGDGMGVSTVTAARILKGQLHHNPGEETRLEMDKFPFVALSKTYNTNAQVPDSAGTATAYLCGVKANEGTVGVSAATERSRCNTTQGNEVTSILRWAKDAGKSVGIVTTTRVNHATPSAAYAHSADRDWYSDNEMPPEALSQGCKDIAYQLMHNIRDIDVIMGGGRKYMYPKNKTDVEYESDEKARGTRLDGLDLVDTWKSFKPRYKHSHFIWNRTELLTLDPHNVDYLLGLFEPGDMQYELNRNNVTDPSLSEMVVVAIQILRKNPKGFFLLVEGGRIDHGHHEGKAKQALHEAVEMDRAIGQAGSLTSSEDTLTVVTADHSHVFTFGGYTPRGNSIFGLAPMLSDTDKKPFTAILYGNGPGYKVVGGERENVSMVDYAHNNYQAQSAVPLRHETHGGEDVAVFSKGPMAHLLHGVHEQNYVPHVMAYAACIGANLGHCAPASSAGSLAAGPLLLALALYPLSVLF

[23] = molecular target: Glyceraldehyde-3-phosphate dehydrogenase (Homo sapiens, UniProt P04406)
Glyceraldehyde-3-phosphate dehydrogenase, sequence (P04406 whole entry): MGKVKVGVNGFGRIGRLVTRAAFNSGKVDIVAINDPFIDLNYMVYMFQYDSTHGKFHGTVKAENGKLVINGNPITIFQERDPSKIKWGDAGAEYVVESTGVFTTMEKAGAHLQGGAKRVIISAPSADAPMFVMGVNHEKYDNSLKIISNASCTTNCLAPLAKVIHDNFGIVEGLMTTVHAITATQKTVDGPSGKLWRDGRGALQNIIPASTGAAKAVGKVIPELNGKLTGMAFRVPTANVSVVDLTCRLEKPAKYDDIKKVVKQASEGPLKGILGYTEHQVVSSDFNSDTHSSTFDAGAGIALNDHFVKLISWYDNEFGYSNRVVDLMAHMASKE

SMILES: Cc1sc(NC(=O)c2ccco2)c(CN2CCC(C)CC2)c1C
- EC50 (cells [1]): > 350 µM (not active)
- EC50 (cells [2]): > 350 µM (not active)
- EC50 [3]: 7.78 µM (active)

SMILES: O=C(Nc1ccccn1)c1cc2ccccc2o1
- EC50 (BJ [4]): > 150 µM (inconclusive)
- EC50 [5]: 0.22 µM (active)
- EC50 (BJ [6]): 11.2 µM (active)
- EC50 [7]: 3.03 µM (active)
- EC50 [8]: 3.9 µM (active)
- EC50 (BJ [9]): 16.1 µM (active)
- EC50 [10]: 11.2 µM (active)
- EC50 (HT-1080): > 50 µM (not active)

- IC50 [11]: 0.624 µM (active)
SMILES: Cn1c(=O)n(C/C=C/c2ccccc2)c(=O)c2c1nc1n2CCCN1c1ccc(F)cc1

SMILES: CCOc1ccc(-c2cnc3ccccc3n2)cc1
- AC50 [12]: 30.8 µM (active)
- AC50 [13]: 1.77 µM (active)
- AC50 [14]: 97.4 µM (active)
- EC50 [15]: 10 µM (active)
- IC50 (Protein skinhead-1): > 100 µM (inactive)
- AC50 [16]: 1.8 µM (active)

SMILES: COC(=O)[C@@H]1Cc2c([nH]c3ccccc23)C(C)(C)N1C(=O)CCl
- IC50 [17]: > 80 µM (inactive)
- EC50 (BJ [4]): > 75 µM (inconclusive)
- EC50 (BJ [6]): 2.4 µM (inconclusive)
- AC50 [18]: 3.27 µM (active)
- EC50 (BJ [19]): 18.1 µM (active)
- EC50 [15]: 4.08 µM (active)
- EC50 (BJ [9]): 3.16 µM (inconclusive)
- AC50 (Paired box protein Pax-8): 1.26 µM (active)
- EC50 [10]: 2.65 µM (inconclusive)

SMILES: CC(C)(C)NC(=O)c1cc(Cl)ccc1[N+](=O)[O-]
- AC50 [14]: 11.5 µM (active)

SMILES: Sc1nnc(-c2ccccn2)n1/N=C/c1cccc2ccccc12
- AC50 [20]: 10.8 µM (active)
- IC50 [21]: 2.35 µM (active)

SMILES: Cc1ccc(SCc2cn3c(C)csc3n2)cc1
- EC50 [5]: < 0.2 µM (active)
- AC50 (HeLa): 54.9 µM (active)
- EC50 (HT-1080): > 50 µM (not active)

- IC50 [22]: > 100 µM (inactive)
- IC50 [23]: > 100 µM (not active)
SMILES: COc1ccc(Br)cc1S(=O)(=O)Nc1ccc2ncccc2c1
